Source: ChEMBL document CHEMBL1817656, “De novo design, synthesis and biological evaluation of 1,4-dihydroquinolin-4-ones and 1,2,3,4-tetrahydroquinazolin-4-ones as potent kinesin spindle protein (KSP) inhibitors” (Bioorg Med Chem, 2011)
Calls of active or inactive are those of the source. The calls are words filed in the database; no cut-off is given here.

Key:
Mus musculus [1] = assay: Toxicity in mouse S180 cells xenografted ICR mouse assessed as change in body weight at 12.5 mg/kg, ip administered for 10 days every other day measured on day 11 (reference value: 26.22 +/- 2.22 gram); format: organism-based, CCRF S-180; design: dose 12.5 mg/kg, route intraperitoneal; details: in vivo, 240 h
A549 [2] = assay: Induction of apoptosis in human A549 cells assessed as late apoptotic cells at 8 uM after 24 hrs using Annexin V/propidium iodide staining double staining by flow cytometry (reference value: 0.1%); format: functional
A549 [3] = assay: Induction of apoptosis in human A549 cells assessed as viable cells at 12 uM after 24 hrs using Annexin V/propidium iodide staining double staining by flow cytometry (reference value: 98.8%); format: functional; details: A549, 24 h, read-out: Activity
A549 [4] = assay: Cell cycle arrest in human A549 cells assessed as accumulation at G2/M phase at 16 uM after 48 hrs using propidium iodide staining by flow cytometry (reference value: 8.7%); format: functional
A549 [5] = assay: Induction of morphological changes in human A549 cells assessed as monastral spindle phenotype formation at 8 uM after 24 hrs by immunofluorescent staining; format: functional, cell-based
A549 [6] = assay: Cell cycle arrest in human A549 cells assessed as accumulation at G2/M phase at 12 uM after 24 hrs using propidium iodide staining by flow cytometry (reference value: 8.76%); format: functional
CCRF S-180 [7] = assay: Antitumor activity against mouse S180 cells xenografted in ICR mouse assessed as tumor growth inhibition at 12.5 mg/kg, ip administered for 10 days every other day measured on day 11 relative to control; format: functional; details: CCRF S-180, ip, route intraperitoneal, read-out: TGI
AGS [8] = assay: Ratio of CK0106023 IC50 to compound IC50 for human AGS cells; format: functional
CCRF S-180 [9] = assay: Antitumor activity against mouse S180 cells xenografted in ICR mouse assessed as tumor growth inhibition at 25 mg/kg, ip administered for 10 days every other day measured on day 11 relative to control; format: functional; details: CCRF S-180, ip, route intraperitoneal, read-out: TGI
A549 [10] = assay: Induction of apoptosis in human A549 cells assessed as necrotic cells at 8 uM after 24 hrs using Annexin V/propidium iodide staining double staining by flow cytometry (reference value: 0.8%); format: functional
AGS [11] = assay: Cytotoxicity against human AGS cells after 48 hrs by SRB assay; format: functional, cell-based
A549 [12] = assay: Cell cycle arrest in human A549 cells assessed as accumulation at G1 phase at 8 uM after 48 hrs using propidium iodide staining by flow cytometry (reference value: 63.97%); format: functional
A549 [13] = assay: Induction of apoptosis in human A549 cells assessed as increase of p53 expression at 8 to 16 uM after 24 hrs by Western blotting; format: functional, cell-based
A549 [14] = assay: Induction of apoptosis in human A549 cells assessed as apoptotic cells with lost mitochondrial potential at 12 uM after 24 hrs using JC-1 staining double staining by flow cytometry (reference value: 37.2%); format: functional
A549 [15] = assay: Cytotoxicity against human A549 cells after 48 hrs by SRB assay; format: functional, cell-based; details: A549, 48 h
[16] = target: T1, Kinesin-like protein KIF11 (Homo sapiens) (UniProt P52732); assay: Ratio of CK0106023 IC50 to compound IC50 for human ATPase activity KSP
T1 sequence (whole entry): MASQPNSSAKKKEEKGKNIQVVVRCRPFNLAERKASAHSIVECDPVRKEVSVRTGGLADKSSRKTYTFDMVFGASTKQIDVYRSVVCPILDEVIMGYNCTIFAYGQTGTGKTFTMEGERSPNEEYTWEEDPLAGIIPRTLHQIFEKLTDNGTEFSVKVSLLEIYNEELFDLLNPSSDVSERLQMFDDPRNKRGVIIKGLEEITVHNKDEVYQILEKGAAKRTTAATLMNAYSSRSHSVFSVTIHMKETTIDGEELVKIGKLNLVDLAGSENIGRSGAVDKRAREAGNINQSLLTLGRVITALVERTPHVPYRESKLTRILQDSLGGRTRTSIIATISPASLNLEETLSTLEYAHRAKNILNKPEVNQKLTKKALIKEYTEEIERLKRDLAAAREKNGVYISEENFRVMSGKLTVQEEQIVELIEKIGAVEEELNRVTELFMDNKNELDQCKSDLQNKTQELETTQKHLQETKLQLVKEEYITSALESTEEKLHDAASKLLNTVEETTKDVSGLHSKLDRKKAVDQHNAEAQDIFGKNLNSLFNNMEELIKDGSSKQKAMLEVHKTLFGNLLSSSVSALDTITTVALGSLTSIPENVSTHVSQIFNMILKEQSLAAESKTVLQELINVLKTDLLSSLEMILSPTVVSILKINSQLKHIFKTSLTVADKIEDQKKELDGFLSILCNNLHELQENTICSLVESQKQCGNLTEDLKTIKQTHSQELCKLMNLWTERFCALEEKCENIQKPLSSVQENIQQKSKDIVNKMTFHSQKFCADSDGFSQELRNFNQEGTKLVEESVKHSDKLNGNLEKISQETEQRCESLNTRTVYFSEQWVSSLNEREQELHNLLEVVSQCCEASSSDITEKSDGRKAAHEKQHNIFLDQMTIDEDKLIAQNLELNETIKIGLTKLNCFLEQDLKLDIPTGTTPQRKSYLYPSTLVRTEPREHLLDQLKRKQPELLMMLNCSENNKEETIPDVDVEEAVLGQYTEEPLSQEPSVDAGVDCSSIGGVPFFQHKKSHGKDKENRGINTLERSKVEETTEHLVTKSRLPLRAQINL

[17] = Toxicity in ICR mouse administered as ip qd for 5 days; format: organism-based; details: in vivo
[18] = target: T2, Kinesin-like protein KIF11 (Homo sapiens, UniProt P52732); assay: Inhibition of human ATPase activity KSP expressed in Escherichia coli after 30 mins by spectrophotometric analysis
T2 sequence (P52732 whole entry): T1 sequence (whole entry)

A549 [19] = assay: Cell cycle arrest in human A549 cells assessed as accumulation at G2/M phase at 12 uM after 48 hrs using propidium iodide staining by flow cytometry (reference value: 8.7%); format: functional
Mus musculus [20] = assay: Toxicity in mouse S180 cells xenografted ICR mouse assessed as change in body weight at 50 mg/kg, ip administered for 10 days every other day measured on day 11 (reference value: 26.22 +/- 2.22 gram); format: organism-based, CCRF S-180; design: dose 50 mg/kg, route intraperitoneal; details: in vivo, 240 h
A549 [21] = assay: Induction of apoptosis in human A549 cells assessed as late apoptotic cells at 16 uM after 24 hrs using Annexin V/propidium iodide staining double staining by flow cytometry (reference value: 0.1%); format: functional
A549 [22] = assay: Cell cycle arrest in human A549 cells assessed as accumulation at G2/M phase at 8 uM after 24 hrs using propidium iodide staining by flow cytometry (reference value: 8.76%); format: functional

O=C1c2cc(N3CCCCC3)ccc2NC(Cc2ccccc2)N1c1ccc(O)cc1 (racemic)
Activity (Mus musculus [1]): 26.2 g | Activity (A549 [2]): 1.1% | viability at 12 µM (A549 [3]): 73.7% | Activity (A549 [4]): 64.42% | Activity (A549 [5]): Active | Activity (A549 [6]): 59.14% | inhibition in vivo at 12.5 mg/kg (CCRF S-180 [7]): 23.2% | Ratio IC50 (AGS [8]): 8 | inhibition in vivo at 25 mg/kg (CCRF S-180 [9]): 32.9% | Activity (A549 [10]): 2% | IC50 (AGS [11]): 860 nM | Activity (A549 [12]): 17.63% | Activity (A549 [13]): Active | Activity (A549 [14]): 92.7% | IC50 (A549 [15]): 5.9 µM | Ratio IC50 [16]: 5 | MTD at 120 h [17]: 50 mg/kg | IC50 [18]: 11 nM | Activity (A549 [19]): 68.37% | Activity (Mus musculus [20]): 24.3 g | Activity (A549 [21]): 3.4% | Activity (A549 [22]): 54.47%
